Patent US12350252B2, “Water-soluble cannabinoid formulations and methods of their making” (SOLUSCIENCE, LLC, priority 2019, dated 2025)

Test: Accelerated stability study of 2% CBD colloidal dispersion (cannabinoid profile, appearance, pH, microbial growth)
Format: physicochemical
Description: The solid dispersion included 20% CBD, 75% of Poloxamer 407 and 5% ascorbic acid was dissolved in distilled water to produce the homogenic, stable colloidal dispersion of cannabidiol at 2% (20 mg/mL) by weight of the formulation.

[1] = Day # 0, content in colloidal dispersion of cannabidiol at 2% (20 mg/mL)
[2] = Day # 90, stored at 100° F. (38° C.), content in colloidal dispersion of cannabidiol at 2%

| Structure (SMILES) | Cannabinoid profile Result [1] [mg/g] | Cannabinoid profile Result (%) [1] [%] | Cannabinoid profile Result [2] [mg/g] | Cannabinoid profile Result (%) [2] [%] |
| --- | --- | --- | --- | --- |
| C=C(C)[C@@H]1CCC(C)=C[C@H]1c1c(O)cc(CCCCC)cc1O [Cannabidiol (CBD), Cannabidiol] | 20.2 | 2.02 | 21.9 | 2.19 |
| CCCCCc1cc(O)c(C/C=C(\C)CCC=C(C)C)c(O)c1 [Cannabigerol (CBG), Cannabigerol] | 0.3 | 0.03 |  |  |
| CCCCCc1cc(O)c2c(c1)OC(C)(C)c1ccc(C)cc1-2 [Cannabinol (CBN), Cannabinol] | 0.3 | 0.03 |  |  |
